Test results taken from article PMC11274128, “Modification and Synergistic Studies of a Novel Frog Antimicrobial Peptide against Pseudomonas aeruginosa Biofilms” (Antibiotics, 2024).
Converted amounts (≈) assume the structure as drawn. Read-outs that look alike come from different tables or passages of the source. Bridge positions count the residues as written; N and C are the ends. Peptide text beside a SMILES is read from it.

Columns and labels:
[1] = system: E. faecalis (NCTC 12697); assay: microbe, parasite or virus in culture; type: cell-based, Enterococcus faecalis; conditions: planktonic E. faecalis NCTC 12697; for MIC: 37 °C, nine repeats of three independent experiments; for MBC: lowest concentration killing 99.9% of inoculum
Excerpt: (§1) The minimum inhibitory concentration (MIC) is the minimum concentration of an antimicrobial agent that prevents the visible growth of a bacterium or bacteria. The MIC is an important piece of data for research on new antimicrobial agents and helps in the effective selection of antibiotics to improve the success of treatment. The minimum bactericidal concentration (MBC) is defined as the lowest antibiotic concentration that kills 99.9% of the inoculum. This study mainly contained eight different microorganisms, which were Staphylococcus aureus (ATCC 6538), methicillin-resistant Staphylococcus aureus (NCTC 12493), Enterococcus faecalis (NCTC 12697), Escherichia coli (ATCC 8739), Klebsiella pneumoniae (ATCC 43816), Pseudomonas aeruginosa (ATCC CRM 9027), Acinetobacter baumannii (BAA 747), and Candida albicans (ATCC 10231). The bacteria were incubated in the compatible medium at 37 °C overnight.

[2] = system: MRSA (NCTC 12493); assay: microbe, parasite or virus in culture; type: cell-based, methicillin-resistant Staphylococcus aureus; conditions: planktonic MRSA NCTC 12493; for MIC: 37 °C, nine repeats of three independent experiments; for MBC: lowest concentration killing 99.9% of inoculum
Excerpt: as §1

[3] = system: Yeast; assay: Geometric mean of MICs and TI value; type: cell-based, Candida albicans; conditions: C. albicans ATCC 10231
Procedure: (§2) The therapeutic potential of antimicrobial agents was valued based on their selectivity toward bacteria in reference to erythrocytes. The TI value was calculated from the results of antibacterial and haemolysis experiments of peptides using the following formula:TI value = HC10 / GMMICs.
(§3) GM was the geometric mean of MICs against all tested bacteria.

[4] = system: MRSA NCTC 12493 biofilm; type: cell-based, methicillin-resistant Staphylococcus aureus; conditions: for MBIC: lowest concentration inhibiting at least 90% of biofilm formation; for MBEC: minimum concentration eradicating at least 99% of the biofilm
Excerpt: (§4) The minimum bactericidal concentration (MBC) is defined as the lowest antibiotic concentration that kills 99.9% of the inoculum. The minimum biofilm inhibitory concentration (MBIC) is the lowest concentration that inhibits at least 90% of the formation of biofilm. The minimum biofilm eradication concentration (MBEC) is the minimum concentration that can eradicate at least 99% of the biofilm. In addition to the eight microorganisms described previously, this experiment was also applied to P. aeruginosa (ATCC 27853, ATCC BAA-2108, P. aeruginosa 01, P. aeruginosa 14).

[5] = system: A. baumannii BAA 747 biofilm; type: cell-based, Acinetobacter baumannii; conditions: for MBIC: lowest concentration inhibiting at least 90% of biofilm formation; for MBEC: minimum concentration eradicating at least 99% of the biofilm
Excerpt: as §4

[6] = system: horse red blood cells; conditions: horse red blood cells in PBS, 37 °C, 2 h, absorbance 570 nm; positive control 0.1% Triton
Procedure: The pure peptide was dissolved in PBS and then two-fold diluted to obtain a series of concentrations: 512, 256, 128, 64, 32, 16, 8, 4, and 2 μM. A positive control (0.1% Triton) and blank control (PBS) were used. Two millilitres of fresh horse red blood cells were washed in PBS until the supernatant became colourless and clear, and the mixture was then thoroughly mixed. Each mixture contained 100 μL of peptide solution or controls and 100 μL of horse red blood cells, which were then incubated at 37 °C for 2 h and centrifuged at 930× g for 10 min. Subsequently, 100 μL of supernatant from each tube was transferred into a 96-well plate, and the plate reader measured the absorbance at a wavelength of 570 nm. The haemolysis rate was calculated using the following formula:Percentage Haemolysis= (ASample − ABlank)/(APositive − ABlank) × 100%

[7] = system: S. aureus ATCC 6538 biofilm; conditions: checkerboard MBIC, 24 h, crystal violet, 595 nm
Procedure: (§5) Parameter fractional inhibitory concentration indices (FICIs) were used to evaluate the synergistic effect, and the value of that was calculated as follows:FICI = FICa + FICb FICa = MIC combination peptide/MIC single peptide FICb = MIC combination antibiotic/MIC single antibiotic
(§6) The FICI value was interpreted as “synergy” (FICI ≤ 0.5), “no interaction” (0.5 < FICI ≤ 4), or “antagonism” (FICI > 4).
(§7) The bacteria were also cultured, subcultured, diluted, and incubated as the methods of the MBIC assay. All experimental groups were included in a peptide and antibiotic co-administration of MIC assay. To ensure that the mixture was evenly dispersed, the plate was placed in a shaker and incubated for 24 h at 37 and 220× g. The plate was twice rinsed with 200 µL of PBS solution following a 24 h incubation period with peptides and diluted bacterial cultures. Each well received a separate addition of 100 μL of methanol and 0.1% crystal violet solution (Sigma-Aldrich, London, UK), which was left there for 20 min. The plate was then carefully cleaned under running water. Following the drying process, each well received 160 µL of acetic acid (33% in dd water, Sigma-Aldrich, UK). Additionally, the absorbance was measured at λ = 595 nm using the Synergy HT plate reader. FICI values were calculated and identified for our peptide and antibiotic co-administration of MIC assay.

[8] = system: A. baumannii BAA 747 biofilm; conditions: checkerboard MBIC, 24 h, crystal violet, 595 nm
Procedure: as §5, §6, §7

[9] = system: P. aeruginosa 14 biofilm; conditions: checkerboard MBIC, 24 h, crystal violet, 595 nm
Procedure: as §5, §6, §7

[10] = system: P. aeruginosa ATCC BAA-2108 biofilm; conditions: checkerboard MBIC, 24 h, crystal violet, 595 nm
Procedure: as §5, §6, §7

[11] = system: MRSA NCTC 12493 biofilm; conditions: checkerboard MBIC, 24 h, crystal violet, 595 nm
Procedure: as §5, §6, §7

[12] = system: P. aeruginosa ATCC 27853 biofilm; conditions: checkerboard MBIC, 24 h, crystal violet, 595 nm
Procedure: as §5, §6, §7

[13] = system: P. aeruginosa 01 biofilm; conditions: checkerboard MBIC, 24 h, crystal violet, 595 nm
Procedure: as §5, §6, §7

[14] = system: K. pneumoniae ATCC 43816 biofilm; conditions: checkerboard MBIC, 24 h, crystal violet, 595 nm
Procedure: as §5, §6, §7

[15] = system: E. faecalis NCTC 12697 biofilm; assay: Peptide and antibiotic co-administration MBIC checkerboard assay; type: cell-based, Enterococcus faecalis; conditions: 24 h, crystal violet, 595 nm
Excerpt: The plate was then carefully cleaned under running water.

[16] = system: C. albicans (ATCC 10231); type: cell-based, Candida albicans; conditions: yeast C. albicans ATCC 10231; for MIC: 37 °C, nine repeats of three independent experiments; for MBC: lowest concentration killing 99.9% of inoculum
Excerpt: as §1

[17] = system: G− Bacteria; assay: Geometric mean of MICs and TI value; type: cell-based; conditions: geometric mean of MICs against tested Gram-negative bacteria
Procedure: as §2, §3

[18] = system: P. aeruginosa (ATCC CRM 9027); assay: microbe, parasite or virus in culture; type: cell-based, Pseudomonas aeruginosa; conditions: planktonic P. aeruginosa ATCC CRM 9027; for MIC: 37 °C, nine repeats of three independent experiments; for MBC: lowest concentration killing 99.9% of inoculum
Excerpt: as §1

[19] = system: E. coli (ATCC 8739); assay: microbe, parasite or virus in culture; type: cell-based, Escherichia coli; conditions: planktonic E. coli ATCC 8739; for MIC: 37 °C, nine repeats of three independent experiments, read-out: MIC; for MBC: lowest concentration killing 99.9% of inoculum, read-out: MBC
Excerpt: as §1

[20] = peptide combined with gentamicin

Compound	MIC [1]	MBC [1]	MIC [2]	MBC [2]	GM (geometric mean of MICs), Yeast [3]	MBIC [4]	MBEC [4]	MBIC [5]	MBEC [5]	HC10 [6]	Biofilm FICI ([7]; peptide combined with cefepime)	Biofilm FICI [7, 20]	Biofilm FICI ([8]; peptide combined with cefepime)	Biofilm FICI [8, 20]	Biofilm FICI ([9]; peptide combined with cefepime)	Biofilm FICI [9, 20]	Biofilm FICI ([10]; peptide combined with cefepime)	Biofilm FICI [10, 20]	Biofilm FICI ([11]; peptide combined with cefepime)	Biofilm FICI [11, 20]	further results
CC[C@H](C)[C@H](NC(=O)[C@H](CCCCN)NC(=O)[C@H](CCCCN)NC(=O)CNC(=O)[C@H](C)NC(=O)CNC(=O)[C@H](CC(C)C)NC(=O)[C@@H](NC(=O)CNC(=O)[C@H](CO)NC(=O)[C@H](CC(C)C)NC(=O)[C@H](CC(C)C)NC(=O)CN)C(C)C)C(=O)N[C@H](C(=O)N[C@H]1CSSC[C@@H](C(=O)O)NC(=O)[C@H](CCCNC(=N)N)NC(=O)CNC(=O)[C@H](CO)NC(=O)[C@H](CC(C)C)NC(=O)CNC1=O)C(C)C [Nigrosin-6VL] (H-GLLSGVLGAGKKIVCGLSGRC-OH; disulfide 15-21)	> 128 µM	> 128 µM	> 128 µM	> 128 µM	128.00 µM	>128/>128 µM	>128/>128 µM	>128/>128 µM	>128/>128 µM	>256 µM	1	0.5	0.5	0.5	0.25	0.5	0.625	1	0.75	0.375	Biofilm FICI ([12]; peptide combined with cefepime): 1; Biofilm FICI [12, 20]: 0.25; Biofilm FICI ([13]; peptide combined with cefepime): 0.625; Biofilm FICI [13, 20]: 0.625; Biofilm FICI ([14]; peptide combined with cefepime): 1.25; Biofilm FICI [14, 20]: 0.5; Biofilm FICI ([15]; peptide combined with cefepime): 0.5; Biofilm FICI [15, 20]: 0.5; MIC [16]: 128 µM (≈ 254 µg/mL); MBC [16]: > 128 µM; GM (geometric mean of MICs), G− Bacteria [17]: 90.51 µM; MIC ([18]; read-out: MIC): 32 µM (≈ 63.6 µg/mL); MBC ([18]; read-out: MBC): 128 µM (≈ 254 µg/mL); MIC [19]: 64 µM (≈ 127 µg/mL); MBC [19]: 128 µM (≈ 254 µg/mL)
CC[C@H](C)[C@H](NC(=O)[C@H](CCCCN)NC(=O)[C@H](CCCCN)NC(=O)CNC(=O)[C@H](C)NC(=O)[C@H](CCCNC(=N)N)NC(=O)[C@H](CC(C)C)NC(=O)[C@@H](NC(=O)[C@H](C)NC(=O)[C@H](CCCNC(=N)N)NC(=O)[C@H](CC(C)C)NC(=O)[C@H](CC(C)C)NC(=O)CN)C(C)C)C(=O)N[C@H](C(=O)N[C@H]1CSSC[C@@H](C(=O)O)NC(=O)[C@H](CCCNC(=N)N)NC(=O)CNC(=O)[C@H](CO)NC(=O)[C@H](CC(C)C)NC(=O)CNC1=O)C(C)C [Peptide 2170-2R] (H-GLLRAVLRAGKKIVCGLSGRC-OH; disulfide 15-21)	128 µM (≈ 278 µg/mL)	128 µM (≈ 278 µg/mL)	16 µM (≈ 34.7 µg/mL)	16 µM (≈ 34.7 µg/mL)	64.00 µM	4 µM	16 µM	8 µM	16 µM	>256 µM	1	0.25	0.625	0.75	0.375	1	1	>3	0.5	1.125	Biofilm FICI ([12]; peptide combined with cefepime): 0.5; Biofilm FICI [12, 20]: 0.25; Biofilm FICI ([13]; peptide combined with cefepime): 0.5; Biofilm FICI [13, 20]: 1; Biofilm FICI ([14]; peptide combined with cefepime): 3; Biofilm FICI [14, 20]: 1.125; Biofilm FICI ([15]; peptide combined with cefepime): 0.375; MIC [16]: 64 µM (≈ 139 µg/mL); MBC [16]: 128 µM (≈ 278 µg/mL); GM (geometric mean of MICs), G− Bacteria [17]: 11.31 µM; MIC [18]: 32 µM (≈ 69.4 µg/mL); MBC [18]: 32 µM (≈ 69.4 µg/mL); MIC [19]: 4 µM (≈ 8.67 µg/mL); MBC [19]: 8 µM (≈ 17.3 µg/mL)
